This note sets out measurements from PubChem BioAssay (NCI).

Among the test systems are A549 NSCLC; A498 renal; HT29 colon; SW-620 colon; NCI-H23 lung; LOX IMVI melanoma; KM12 colon; SK-MEL-28 melanoma; HCT-15 colon; UACC-62 melanoma; DMS 273 small cell lung; SF-295 CNS.
Test in all cases: NCI anticancer screen, dose series, 48 h

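1) Cells in 96-well plates. 2) Compound, 48 h, 5 concentrations. 3) Linear interpolation between surrounding doses. 4) Unreached endpoint = highest concentration. At the GI50, growth is halved. TGI: concentration producing complete growth inhibition.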 Where a SMILES comes first, the peptide text is derived from it. The star is where a group is joined. Cbz = O=C(OCc1ccccc1)*; Bn = c1ccc(C*)cc1 Some results are limits rather than exact numbers.

Consider `CC(=O)OCC1OC(NC(=O)N(CCCl)N=O)C(OC(C)=O)C(OC(C)=O)C1OC(C)=O` (stereo not drawn), for which the TGI in the test with A549 NSCLC, with A498 renal, in the test with HT29 colon, with SW-620 colon, in the test on NCI-H23 lung and in the test with LOX IMVI melanoma was more than 100 µM each time. Further, the TGI with KM12 colon, in the test on SK-MEL-28 melanoma, in the test with HCT-15 colon, in the test on UACC-62 melanoma, in the test with DMS 273 small cell lung and in the test on SF-295 CNS was more than 100 µM throughout.

Consider `NC(=O)c1ccc([N+](=O)[O-])cc1`, for which the TGI in the test on A549 NSCLC, in the test with A498 renal, in the test with HT29 colon, in the test on SW-620 colon, in the test on NCI-H23 lung and in the test on LOX IMVI melanoma was more than 100 µM each time. Moreover, the TGI with KM12 colon, in the test with SK-MEL-28 melanoma, in the test with HCT-15 colon, with UACC-62 melanoma, in the test with DMS 273 small cell lung and in the test on SF-295 CNS was more than 100 µM throughout.

With `C1CSCCSCSCCS1`, the TGI in the test on A549 NSCLC, in the test on A498 renal, in the test on HT29 colon, in the test with SW-620 colon, with NCI-H23 lung and in the test with LOX IMVI melanoma was more than 100 µM each time. Further, the TGI in the test with KM12 colon, in the test on SK-MEL-28 melanoma, in the test with HCT-15 colon, with UACC-62 melanoma and in the test with SF-295 CNS was more than 100 µM throughout.

`O=C1c2cccc(O)c2C(=O)c2c(O)cccc21`: the TGI in the test on A549 NSCLC, in the test on A498 renal, with HT29 colon, with SW-620 colon, in the test on NCI-H23 lung and in the test with LOX IMVI melanoma was more than 100 µM throughout. Further, the TGI in the test with KM12 colon is more than 100 µM; with SK-MEL-28 melanoma, more than 100 µM; in the test with HCT-15 colon, more than 100 µM; with UACC-62 melanoma, 39.8 µM; in the test with DMS 273 small cell lung it was more than 100 µM; in the test on SF-295 CNS, more than 100 µM.

Regarding `COc1ccc(-c2oc3cc(OC(C)=O)cc(OC(C)=O)c3c(=O)c2OC)cc1`, the TGI in the test with A549 NSCLC was determined as 74.1 µM; in the test on A498 renal, 61.1 µM; in the test on HT29 colon it was 36.3 µM; with SW-620 colon it was 39.7 µM; with LOX IMVI melanoma, 27.9 µM; in the test with SK-MEL-28 melanoma, 35.5 µM. The TGI with HCT-15 colon was more than 100 µM; in the test on UACC-62 melanoma, 22.7 µM; in the test on SF-295 CNS, 37.8 µM.

Regarding `C=CCOCCC(CC=C)C(=O)CC(=O)OC` (stereo not drawn), the TGI in the test on A549 NSCLC, with A498 renal, in the test with HT29 colon, in the test on SW-620 colon, with NCI-H23 lung and in the test with LOX IMVI melanoma was more than 100 µM throughout. Further, the TGI in the test with KM12 colon, in the test with SK-MEL-28 melanoma, in the test on HCT-15 colon, in the test on UACC-62 melanoma, in the test with DMS 273 small cell lung and in the test with SF-295 CNS was more than 100 µM in each case.

Take `NC(CCP(=O)(O)O)C(=O)O` (stereo not drawn): the TGI in the test with A549 NSCLC, in the test on A498 renal, in the test with HT29 colon, in the test with SW-620 colon, in the test on NCI-H23 lung and with LOX IMVI melanoma was more than 100 µM throughout. The TGI with KM12 colon, in the test with SK-MEL-28 melanoma, in the test with HCT-15 colon, in the test on UACC-62 melanoma and in the test with SF-295 CNS was more than 100 µM throughout.

Take `CC1C[C@]2(C[C@@H](C)C(=O)O2)OC2CC3(C)C4CCC5C(C)(C)OC(=O)CC[C@@]56C[C@@]46CC[C@]3(C)C12` (stereo partly drawn): the TGI in the test with A549 NSCLC, in the test on A498 renal, in the test on HT29 colon, in the test with SW-620 colon, in the test with NCI-H23 lung and with LOX IMVI melanoma was more than 100 µM in each case. Besides, the TGI with KM12 colon, in the test on SK-MEL-28 melanoma, in the test with HCT-15 colon, in the test on DMS 273 small cell lung and with SF-295 CNS was more than 100 µM each time.

Take `O=C(Nc1ccc(Cl)cc1)c1cc([N+](=O)[O-])ccc1O`: the TGI with A549 NSCLC was more than 96.2 µM; in the test with A498 renal it was 11.2 µM; in the test with HT29 colon, 29.1 µM; in the test with SW-620 colon, more than 53.3 µM; in the test on NCI-H23 lung it was 6.66 µM; in the test with LOX IMVI melanoma, 19.5 µM. In addition, the TGI was 24.5 µM in the test with KM12 colon; 15.6 µM with SK-MEL-28 melanoma; 28.6 µM in the test with HCT-15 colon; 8.17 µM in the test on UACC-62 melanoma; 20 µM in the test on DMS 273 small cell lung; 30.4 µM in the test on SF-295 CNS.

Consider `COC(=O)C(Cc1ccc(O)cc1)NC(=O)C(COCc1ccccc1)NC(=O)OCc1ccccc1` (stereo not drawn) (Cbz-Ser(Bn)-Tyr-OMe; configuration not given here), for which the TGI with A549 NSCLC worked out at 35.7 µM; in the test on A498 renal, 58 µM; in the test with HT29 colon, 28.6 µM; with SW-620 colon, 32.9 µM; in the test with NCI-H23 lung, 42.8 µM; with LOX IMVI melanoma, 41 µM. The TGI with KM12 colon is 35 µM; in the test with SK-MEL-28 melanoma it was 35.9 µM; in the test on HCT-15 colon it was 33.6 µM; in the test with UACC-62 melanoma, 31.1 µM; with SF-295 CNS, 35.3 µM.

As to `c1ccc(-c2n(Cc3ccc4ccccc4c3)c3ccccc3[n+]2Cc2ccc3ccccc3c2)cc1`, the GI50 in the test on A498 renal was less than 43 nM; in the test with SW-620 colon, 331 nM; in the test with KM12 colon, 321 nM; in the test with SK-MEL-28 melanoma, 359 nM; in the test on HCT-15 colon, 1390 nM; in the test with UACC-62 melanoma, 224 nM. The GI50 in the test on SF-295 CNS is 306 nM. For the same molecule, the TGI in the test with A498 renal turned out to be 0.933 µM; in the test with SW-620 colon it was 1.33 µM; in the test on KM12 colon it was 1.2 µM; in the test on SK-MEL-28 melanoma, 1.31 µM; in the test with HCT-15 colon, 2.91 µM; with UACC-62 melanoma, 0.76 µM. The molecule further gave a TGI in the test with SF-295 CNS of 1.11 µM.

For the molecule `N=C(N)c1ccc(-c2ccc(-c3ccc4ccccc4c3)s2)s1`, the GI50 in the test on A498 renal is 1700 nM; in the test on SW-620 colon, 1910 nM; in the test on NCI-H23 lung it was 2960 nM; in the test with KM12 colon, 1920 nM; with SK-MEL-28 melanoma, 2250 nM; in the test on HCT-15 colon it was 1690 nM. The GI50 with UACC-62 melanoma was 2100 nM; in the test on SF-295 CNS it was 2270 nM. In addition, the TGI worked out at 10.5 µM in the test with A498 renal; 3.52 µM in the test with SW-620 colon; 11.1 µM in the test on NCI-H23 lung; 4.08 µM in the test on KM12 colon; 6.02 µM with SK-MEL-28 melanoma; 3.29 µM in the test with HCT-15 colon. The TGI in the test with UACC-62 melanoma was found to be 4.37 µM; in the test with SF-295 CNS, 5.99 µM.
